Assay [1] concerns CD146-positive TSPC. In words: CD146 immunostaining of TSPC in injured Achilles tendon. Type of assay: in vivo, rat. As to conditions: 1 week after wounding; peptide/alginate gel; vehicle/alginate 38.3±7.8. The procedure:
(A) Representative CD146-stained longitudinal sections. (Original magnification×200). (B) The number of CD146-positive TSPC per 200×field of view on injured tendon sections. Data are reported as mean±SE. Total CD146^+ cells were evaluated from 6 sections/tendon specimen, with 3 rats in each group. *P<0.001 versus vehicle/alginate-treated tendon; #p <0.001 versus 29-mer/alginate-treated tendon.
To investigate the effects of the 29-mer peptide on tendon healing, a rat model of Achilles tendon injury was established as reported by Orhan et al. (The effect of extracorporeal shock waves on a rat model of injury to tendon Achilles. A histological and biomechanical study. J. Bone Joint Surg. Br. 2004;.86(4):.613-618). Adult 10-week-old male Sprague-Dawley rats (initial body weight=312±11 g) were anesthetized by an intraperitoneal injection of xylazine (10 mg/kg). Then, the left tendo Achilles injury was created by full-thickness insertion of an 18-G needle through tendo Achilles 1 cm proximal to the calcaneum attachment site. This created a horizontal wound that was flanked by intact tendon tissue to prevent the retraction of severed ends. […]
CD146 is one of the TSPC markers. […] To test the mechanism of the 29-mer-induced tendon repair, CD146 immunostaining of TSPC located at injured tendon was measured, at 1 week after wounding. […]

Assay [2] has as its system cyclin D1. Briefly: Western blot analysis of cyclin D1 expression in TSPC. Conditions: TSPC treated 24 h; compared with solvent-treated cells; normalized to β-actin. Format: cell-based, rabbit. The procedure:
Primary rabbit TSPC were treated with 10NM 29-mer or its variants for 24 h. Representative blots (A) and densitometric analysis with the SD (B) from three independent experiments are shown. Cyclin D1 expression was normalized to ([…]. *P<0.01 vs. solvent-treated cells. ^#P<0.05 vs. 29-mer-treated cells.
Achilles tendons from New Zealand White rabbits (6-8 months old, 3.0-4.0 kg) were used in this study. Achilles tendons were washed two times with sterile phosphate-buffered saline (PBS) containing 50 μg/ml gentamicin. The tendon and tendon sheath were cut into small pieces (1-2 mm^3). Each 100 mg of fragment was then digested in a solution containing 3 mg/ml of type I collagenase and 4 mg/ml of dispase in 1 ml balance salt solution (BSS; Alcone) at 37° C. for 4 hours. The digested tissues were washed three times with PBS and collected by centrifugation (800 g for 10 min). The digested tissues were placed in tissue-culture plates (Falcon Labware; NJ, USA) and resuspended in high-glucose DMEM supplemented with 10% FBS and 50 μg/ml gentamycin, and maintained at 37° C. with 5% CO2. After 5 days, the medium was changed to remove the loosened tissue residues. Subsequently, tendon cells were incubated with 10% FBS medium for 2 days, and then cultured with a basal medium (2% FBS, 1% ITSE, 300 μg/ml L-glutamine, 1% antibiotic-antimicotic solutions) for further 10 days. Culture medium was changed every 3 days. For passage, tendon cells were harvested with 0.25% trypsin/EDTA, cell counting by haemocytometer, approximately 5×10^3 cells were seeded in each well of a 96-well cell culture plate or 2×10^5 cells were seeded in each well of a 6-well cell culture plate for 24 h. These expanded tendon cells were then treated with 10 μM 29-mer or its variants in fresh basal medium for further 24 h and subjected to cell proliferation assay and western blot analysis, respectively.
Cell lysis, SDS-PAGE, and antibodies used for immunoblotting were performed as described (Ho et al., 15-deoxy-Delta(12,14)-prostaglandin J2 induces vascular endothelial cell apoptosis through the sequential activation of MAPKS and p53. J Biol. Chem., 2008; 283(44): 30273-30288). The band intensity in immunoblot was evaluated with a Model GS-700 imaging densitometer (Bio-Rad Laboratories, Hercules, Calif.) and analyzed using Labworks 4.0 software.
However, the 29-mer effect on cyclin D1 protein induction was almost abolished by alanine/glycine replacement at residue S93, A96, Q98, 1103, 1104 and R106, respectively (1.3±0.1, 1.5±0.3, 1.3±0.1, 0.9±0.1, 1.3±0.2, and 1.0±0.3). […] The data also imply that the PDSP at positions Ser93, Ala96, Gln98, Ile103, Ile104, and Arg106 are important for sustaining the PDSP effect on induction of TSPC proliferation.
In general terms: In western blotting, separated proteins are transferred to a membrane and probed.

Assay [3] has as its system injured Achilles tendon. Briefly: Rat model of Achilles tendon injury, histology (H&E) and histopathological score. Type of assay: in vivo. As to conditions: 1 week postoperative. The source says:
Representative micrographs of the histopathological analysis by H&E staining. H&E-stained sections in higher magnification show uninjured tendon tissue with a relative scarcity of cells among the collagen fibers.
(A) Representative H&E-stained longitudinal sections in higher magnification show the nuclei morphologies in uninjured tendon tissue and injured tendon treated with vehicle/alginate and 29-mer/alginate for 1 week. (B) Histopathological scores. Total scores were determining by fiber structure, fiber arrangement, rounding of the nuclei, resident cell density and inflammation (infiltration of inflammatory cells, neovascularization and fatty deposits). Data are reported as mean±SE. *P<0.0005 versus vehicle/alginate-treated tendon; ^#P<0.05 versus 29-mer/alginate-treated tendon.
To investigate the effects of the 29-mer peptide on tendon healing, a rat model of Achilles tendon injury was established as reported by Orhan et al. (The effect of extracorporeal shock waves on a rat model of injury to tendon Achilles. A histological and biomechanical study. J. Bone Joint Surg. Br. 2004;.86(4):.613-618). Adult 10-week-old male Sprague-Dawley rats (initial body weight=312±11 g) were anesthetized by an intraperitoneal injection of xylazine (10 mg/kg). Then, the left tendo Achilles injury was created by full-thickness insertion of an 18-G needle through tendo Achilles 1 cm proximal to the calcaneum attachment site. This created a horizontal wound that was flanked by intact tendon tissue to prevent the retraction of severed ends. The skin incision was closed after the wound was irrigated with sterile saline. Treatments were applied to area around the tendon lesion by subcutaneous injection with 150 μl of alginate gel mixed with 100 μM 29-mer or DMSO vehicle (six rats per experimental condition).
The tendon and surrounding soft tissue were dissected. Specimens were fixed in a 4% paraformaldehyde (PFA) solution and then were embedded in paraffin blocks. Sections (5 μm in thickness) were longitudinally cut and stained with hematoxylin and eosin (H&E) or used for immunohistochemical examination. 36 sections per tendon were carefully prepared so as to include the most severely degenerated area. Images were captured using a Nikon Eclipse 80i microscope (Nikon Corporation, Tokyo, Japan) equipped with a Leica DC 500 camera (Leica Microsystems, Wetzlar, Germany). Four sections of each sample containing injured tendon tissues were selected and evaluated by two blinded observers to assess the tendon morphology according to a modified semi-quantitative grading score from 0 to 3 proposed by Chen et al. (Tendon derived stem cells promote platelet-rich plasma healing in collagenase-induced rat Achilles tendinopathy. Cell Physiol. Biochem., 2014; 34(6): 2153-68). The scores analyzed the fiber structure (0-3), fiber arrangement (0-3), rounding of the nuclei (0-3), resident cell density (0-3), and inflammation (0-3; infiltration of inflammatory cells, neovascularization and fatty deposits). According to this grading system, a perfectly normal tendon obtained a score of 0, whereas a score of 15 was assigned to maximally abnormal tendons.
To investigate the therapeutic effect of the 29-mer peptide on injured tendon, a rat model of Achilles tendon injury was established by full-thickness insertion of an 18-G needle through the tendon Achilles. We delivered the 29-mer in a 150 μl alginate gel, which releases 90% loaded 29-mer in 5 days as described in a previous protocol (Ho et al., PEDF-derived peptide promotes skeletal muscle regeneration through its mitogenic effect on muscle progenitor cells. Am J Physiol. Cell Physiol. 2015 Aug. 1; 309(3): C159-68).

In the case of “H105A: 29-mer variant with single alanine alteration at residue 105 (SLGAEQRTESIIARALYYDLISSPDIHGT; UniProt P36955 93-121, looked up, variant H105A)”, in assay [1], the “number of CD146-positive TSPC on injured tendon sections” value was determined as 88.5±7.8 cells per 200× field. In assay [2], the “induction of the cyclin D1 protein” value stood at 2.7±0.3 fold. This substance also showed a total histopathological score in assay [3] (peptide/alginate gel, 0 = normal tendon, 15 = maximally abnormal, vehicle/alginate 12.7±0.6) of 7.8±0.7. The “histological appearance of treated tendon (H&E staining)” value in assay [3] (subcutaneous 150 μl alginate gel with 100 μM peptide) is “uniform appearance of well-aligned collagen fibers and no degenerative events similar to the 29-mer treatment”.

For the origin of these results see patent US20210244791A1, “APPLICATION OF PEDF-DERIVED SHORT PEPTIDES IN TENDON HEALING” (BRIM Biotechnology, Inc., priority 2018, published 2021).
